Experimental data as given in patent US8927500B2, “Peptidomimetic macrocycles” (Aileron Therapeutics, Inc., priority 2012, dated 2015).
Where a SMILES comes first, the peptide text is derived from it. Bridges are numbered along the chain shown (N, C = ends). [ ]: non-standard residue; d: D form. R8 = C=CCCCCCC[C@@](C)(N)C(=O)O; Cha = N[C@@H](CC1CCCCC1)C(=O)O; hLeu = CC(C)CC[C@H](N)C(=O)O; S5 = C=CCCC[C@](C)(N)C(=O)O; Nle = CCCC[C@H](N)C(=O)O; Ac3c = NC1(C(=O)O)CC1; Aib = CC(C)(N)C(=O)O

Key:
[1] = system: Caspase 3; test: Caspase 3 detection assay in SJSA1 cells; type: cell-based; settings: 48 h, Caspase 3 activation over DMSO-treated cells; for caspase 0.3 uM: 0.3 uM peptide; for caspase 3 uM: 3 uM peptide; for caspase 10 uM: 10 uM peptide; for caspase 30 uM: 30 uM peptide
[2] = system: SJSA-1 cells; test: Cell lysis by peptidomimetic macrocycles (LDH release); type: cell-based; settings: 1 h at 37C
Procedure: On the day of the assay, media was exchanged with RPMI 1% FBS media, 90 uL of media per well.
10 mM stock solutions of the peptidomimetic macrocycles were prepared in 100% DMSO.
The negative control (non-lytic) sample was 0.5% DMSO alone and positive control (lytic) samples include 10 uM Melittin and 1% Triton X-100.
Cell plates were incubated for 1 hour at 37C. After the 1 hour incubation, the morphology of the cells is examined by microscope and then the plates were centrifuged at 1200 rpm for 5 minutes at room temperature. 40 uL of supernatant for each peptidomimetic macrocycle and control sample is transferred to clear assay plates.

[3] = molecular target: MDM2 (Homo sapiens, UniProt Q00987); test: Competitive fluorescence polarization assay for MDM2; type: binding; settings: competitive FP assay, MDM2; for IC50: read-out: IC50 (MDM2); for Ki: read-out: Ki (MDM2)
Sequence of MDM2 (Q00987 1-125): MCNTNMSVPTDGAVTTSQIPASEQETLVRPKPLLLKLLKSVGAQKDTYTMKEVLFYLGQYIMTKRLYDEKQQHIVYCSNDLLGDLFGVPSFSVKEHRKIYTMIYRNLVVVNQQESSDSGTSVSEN

[4] = molecular target: T1, MDMX (Homo sapiens, UniProt O15151); test: Competitive fluorescence polarization assay for MDMX; type: binding; settings: competitive FP assay; for IC50: read-out: IC50 (MDMX); for Ki: read-out: Ki (MDMX)
T1 sequence (O15151 1-125): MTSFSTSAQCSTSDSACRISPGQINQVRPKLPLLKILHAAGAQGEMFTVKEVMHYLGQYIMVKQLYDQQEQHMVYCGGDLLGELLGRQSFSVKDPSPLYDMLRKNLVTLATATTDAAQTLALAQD

| Compound | caspase 0.3 uM [1] | caspase 3 uM [1] | caspase 10 uM [1] | caspase 30 uM [1] | 6.25 uM % Lysed cells (1 h LDH) [2] [%] | 25 uM % Lysed cells (1 h LDH) [2] [%] | 50 uM % Lysed cells (1 h LDH) [2] [%] | IC50 [3] [µM] | Ki [3] [µM] | IC50 [4] [µM] | Ki [4] [µM] |
| --- | --- | --- | --- | --- | --- | --- | --- | --- | --- | --- | --- |
| CC[C@H](C)[C@H](NC(=O)[C@H](C)NC(=O)[C@H](C)NC(=O)[C@]1(C)CCCC=CCCCCCC[C@@](C)(NC(=O)[C@H](Cc2ccccc2)NC(=O)[C@@H](NC(=O)[C@H](CC(C)C)NC(C)=O)[C@@H](C)O)C(=O)N[C@@H](C)C(=O)N[C@@H](Cc2ccc(O)cc2)C(=O)N[C@@H](Cc2c[nH]c3ccccc23)C(=O)N[C@@H](C)C(=O)N[C@@H](CCC(N)=O)C(=O)N[C@@H](CC(C)C)C(=O)N1)C(=O)N[C@H](CC(C)C)C(N)=O (single isomer, unassigned) [compound 81] | 1 | 1 | 6 | 21 | 1 | 0 | 0 |  |  |  |  |
| CC(=O)N[C@@H](CC(C)C)C(=O)N[C@H](C(=O)N[C@@H](Cc1ccccc1)C(=O)N[C@]1(C)CCCCCCC=CCCC[C@@](C)(C(=O)N[C@@H](CO)C(=O)N[C@@H](C)C(=O)N[C@@H](C)C(N)=O)NC(=O)[C@H](C2CCCC2)NC(=O)[C@H](CCC(N)=O)NC(=O)[C@H](C)NC(=O)[C@H](Cc2c[nH]c3ccccc23)NC(=O)[C@H](Cc2ccc(O)cc2)NC(=O)[C@H](CCC(=O)O)NC1=O)[C@@H](C)O (single isomer, unassigned) [compound 149] | 1 | 2 | 4 | 10 | 6 | 7 | 21 |  |  |  |  |
| CC(=O)N[C@@H](CC(C)C)C(=O)N[C@H](C(=O)N[C@@H](Cc1ccccc1)C(=O)N[C@]1(C)CCCCCCC=CCCC[C@@](C)(C(=O)N[C@@H](CO)C(=O)N[C@@H](C)C(=O)N[C@@H](C)C(N)=O)NC(=O)[C@H](CC2CCC2)NC(=O)[C@H](CCC(N)=O)NC(=O)[C@H](C)NC(=O)[C@H](Cc2c[nH]c3ccccc23)NC(=O)[C@H](Cc2ccc(O)cc2)NC(=O)[C@H](CCC(=O)O)NC1=O)[C@@H](C)O (single isomer, unassigned) [compound 153] | 2 | 10 | 15 | 20 | 4 | 2 | 3 |  |  |  |  |
| CC(=O)N[C@@H](Cc1ccccc1)C(=O)N[C@]1(C)CCCCCCC=CCCC[C@@](C)(C(=O)N[C@@H](C)C(=O)N[C@@H](C)C(=O)NC(C)(C)C(N)=O)NC(=O)[C@H](CC(C)C)NC(=O)C2(CC2)NC(=O)[C@H](CCC(=O)O)NC(=O)[C@H](Cc2c[nH]c3ccccc23)NC(=O)[C@H](Cc2ccc(O)cc2)NC(=O)[C@H](C)NC1=O [compound 22] (Ac-F[R8]AYWE[Ac3c]L[S5]AA[Aib]-NH2; staple 2-9) |  |  |  |  | 0 | 0 | 0 | 0.01 to 0.1 | < 0.01 | 0.01 to 0.1 | 0.01 to 0.1 |
| CC(=O)N[C@@H](Cc1c[nH]cn1)C(=O)N[C@@H](CC(C)C)C(=O)N[C@H](C(=O)N[C@@H](Cc1ccccc1)C(=O)N[C@]1(C)CCCCCCC=CCCC[C@@](C)(C(=O)N[C@@H](C)C(=O)N[C@@H](C)C(=O)N[C@@H](CCC(C)C)C(=O)N[C@@H](C)C(N)=O)NC(=O)[C@H](CC(C)C)NC(=O)[C@H](CCC(N)=O)NC(=O)[C@H](Cc2c[nH]cn2)NC(=O)[C@H](Cc2c[nH]c3ccccc23)NC(=O)[C@H](Cc2c[nH]cn2)NC(=O)[C@H](Cc2c[nH]cn2)NC1=O)[C@@H](C)O [compound 32] (Ac-HLTF[R8]HHWHQL[S5]AA[hLeu]A-NH2; staple 5-12) |  |  |  |  | 0 | 2 | 0 | 0.01 to 0.1 | < 0.01 | 0.1 to 1 | 0.01 to 0.1 |
| CCCC[C@H](NC(=O)[C@H](C)NC(=O)[C@H](CCC(N)=O)NC(=O)[C@H](Cc1c[nH]cn1)NC(=O)[C@]1(C)CCCC=CCCCCCC[C@@](C)(NC(=O)[C@H](Cc2ccccc2)NC(C)=O)C(=O)N[C@@H](C)C(=O)N[C@@H](Cc2ccc(O)cc2)C(=O)N[C@@H](Cc2c[nH]c3ccccc23)C(=O)N[C@@H](CO)C(=O)N[C@@H](C)C(=O)N[C@@H](CC(C)C)C(=O)N1)C(N)=O [compound 39] (Ac-F[R8]AYWSAL[S5]HQA[Nle]-NH2; staple 2-9) |  |  |  |  | 0 | 0 | 3 | > 1 | 0.1 to 1 | 0.1 to 1 | 0.1 to 1 |
| CC(=O)N[C@@H](Cc1ccccc1)C(=O)N[C@]1(C)CCCCCCC=CCCC[C@@](C)(C(=O)N[C@@H](Cc2c[nH]cn2)C(=O)N[C@@H](CCCNC(=N)N)C(=O)N[C@@H](Cc2ccccc2)C(=O)N[C@@H](CC2CCCCC2)C(N)=O)NC(=O)[C@H](CC(C)C)NC(=O)[C@H](CCC(N)=O)NC(=O)[C@H](Cc2c[nH]cn2)NC(=O)[C@H](Cc2c[nH]c3ccccc23)NC(=O)[C@H](Cc2c[nH]cn2)NC(=O)[C@H](Cc2c[nH]cn2)NC1=O [compound 55] (Ac-F[R8]HHWHQL[S5]HRF[Cha]-NH2; staple 2-9) |  |  |  |  | 1 | 9 | 13 | > 1 | 0.1 to 1 | > 1 | 0.1 to 1 |
| CC(=O)N[C@@H](CC(C)C)C(=O)N[C@H](C(=O)N[C@@H](Cc1ccccc1)C(=O)N[C@]1(C)CCCCCCC=CCCC[C@@](C)(C(=O)N[C@@H](C)C(=O)N[C@@H](C)C(=O)N[C@@H](Cc2c[nH]c3ccccc23)C(=O)N[C@H](C)C(N)=O)NC(=O)[C@H](CC(C)C)NC(=O)[C@H](CCC(N)=O)NC(=O)[C@H](C)NC(=O)[C@H](Cc2c[nH]c3ccccc23)NC(=O)[C@H](Cc2ccc(O)cc2)NC(=O)[C@H](C)NC1=O)[C@@H](C)O [compound 211] (Ac-LTF[R8]AYWAQL[S5]AAW[dA]-NH2; staple 4-11) |  |  |  |  | 5 | 3 | 1 | < 0.01 | < 0.01 | 0.1 to 1 | 0.01 to 0.1 |
